Assay results published in PubChem BioAssay AID220 (DTP/NCI, 2004).
Where “and” joins values, the source holds several entries; their conditions need not be identical. Equal values may be shown once. Results filed as inconclusive are left out.

Tested on: CD8F1 mice, subcutaneous mammary adenocarcinoma, T/C%
Experiment: NCI In Vivo Anticancer Drug Screen. Data for tumor model Mammary Adenocarcinoma CD8F1 (subcutaneous) in CD8F1
Settings: higher = larger tumour
Experimental: The antitumor activity of compounds was measured in mice bearing transplantable tumors. Survival or tumor size were measured and the results are expressed as the measurement made in the treated group (T) divided by the measurement made in the vehicle treated control group (C). The tumor model used in this assay is Mammary Adenocarcinoma CD8F1 (subcutaneous) in CD8F1

[1] = endpoint: median tumor weight (est.), dose: 12.5 mg/kg/injection, schedule: Q07DX005 (ip), vehicle: saline
[2] = endpoint: median tumor weight (est.), dose: 25.0 mg/kg/injection, schedule: Q07DX005 (ip), vehicle: saline
[3] = endpoint: median tumor weight (est.), dose: 800.0 mg/kg/injection, schedule: Q07DX005 (ip), vehicle: saline
[4] = endpoint: median tumor weight (est.), dose: 50.0 mg/kg/injection, schedule: Q07DX005 (ip), vehicle: saline
[5] = endpoint: median tumor weight (est.), dose: 100.0 mg/kg/injection, schedule: Q07DX005 (ip), vehicle: saline
[6] = endpoint: median tumor weight (est.), dose: 200.0 mg/kg/injection, schedule: Q07DX005 (ip), vehicle: saline
[7] = endpoint: median tumor weight (est.), dose: 400.0 mg/kg/injection, schedule: Q07DX005 (ip), vehicle: saline
[8] = endpoint: median tumor weight (est.), dose: 25.0 mg/kg/injection, schedule: Q07DX005 (ip), vehicle: saline with Tween-80
[9] = endpoint: median tumor weight (est.), dose: 50.0 mg/kg/injection, schedule: Q07DX005 (ip), vehicle: saline with Tween-80
[10] = endpoint: median tumor weight (est.), dose: 100.0 mg/kg/injection, schedule: Q07DX005 (ip), vehicle: saline with Tween-80

O=C(NO)c1ccccc1
T/C (endpoint: median tumor weight (est.), dose: 25.0 mg/kg/injection, schedule: Q07DX005 (ip), vehicle: suspension in saline): 46 % of control | T/C (endpoint: median tumor weight (est.), dose: 50.0 mg/kg/injection, schedule: Q07DX005 (ip), vehicle: suspension in saline): 109 % of control | T/C (endpoint: median tumor weight (est.), dose: 100.0 mg/kg/injection, schedule: Q07DX005 (ip), vehicle: suspension in saline): 293 % of control

CCC1OCC(C(Cl)CCl)O1 (stereo unspecified)
T/C (endpoint: median tumor weight (est.), dose: 25.0 mg/kg/injection, schedule: Q07DX005 (ip), vehicle: Klucel (hydroxypropylcellulose) (HPC)): 93 % of control | T/C (endpoint: median tumor weight (est.), dose: 50.0 mg/kg/injection, schedule: Q07DX005 (ip), vehicle: Klucel (hydroxypropylcellulose) (HPC)): 109 % of control | T/C (endpoint: median tumor weight (est.), dose: 100.0 mg/kg/injection, schedule: Q07DX005 (ip), vehicle: Klucel (hydroxypropylcellulose) (HPC)): 74 % of control

COC(=O)Nc1cccc(-c2nc3ccc(NC(=O)OC)cc3c(=O)n2-c2ccccc2)c1
T/C (endpoint: mean tumor weight, dose: 50.0 mg/kg/injection, schedule: Q07DX006 (ip), vehicle: saline): 180 % of control | T/C (endpoint: mean tumor weight, dose: 100.0 mg/kg/injection, schedule: Q07DX006 (ip), vehicle: saline): 167 % of control | T/C (endpoint: median tumor weight (est.), dose: 12.5 mg/kg/injection, schedule: Q04DX005 (ip), vehicle: saline): 101 % of control | T/C (endpoint: median tumor weight (est.), dose: 12.5 mg/kg/injection, schedule: Q07DX004 (ip), vehicle: saline): 79 % of control | T/C (endpoint: median tumor weight (est.), dose: 25.0 mg/kg/injection, schedule: Q07DX004 (ip), vehicle: saline): 103 % of control | T/C (endpoint: median tumor weight (est.), dose: 50.0 mg/kg/injection, schedule: Q04DX005 (ip), vehicle: saline): 109 % of control | T/C (endpoint: median tumor weight (est.), dose: 50.0 mg/kg/injection, schedule: Q07DX004 (ip), vehicle: saline): 88 % of control | T/C (endpoint: median tumor weight (est.), dose: 200.0 mg/kg/injection, schedule: Q04DX005 (ip), vehicle: saline): 88 % of control | T/C (endpoint: median tumor weight (est.), dose: 200.0 mg/kg/injection, schedule: Q07DX004 (ip), vehicle: saline): 113 % of control | T/C (endpoint: median tumor weight (est.), dose: 400.0 mg/kg/injection, schedule: Q07DX004 (ip), vehicle: saline): 101 % of control

Cc1ccc(NCCN(C)C)c2c(=O)c3cc(O)ccc3sc12
T/C (endpoint: median tumor weight change, dose: 250.0 mg/kg/injection, schedule: Q01DX001 (ip), vehicle: Klucel (hydroxypropylcellulose) (HPC)): -8 % of control and 15 % of control | T/C (endpoint: median tumor weight change, dose: 500.0 mg/kg/injection, schedule: Q01DX001 (ip), vehicle: Klucel (hydroxypropylcellulose) (HPC)): -6 % of control

CC1(C)OCC(CO)(Nc2nc(N3CC3)nc(N3CC3)n2)CO1
T/C (endpoint: median tumor weight (est.), dose: 1.25 mg/kg/injection, schedule: Q07DX005 (ip), vehicle: saline): 41 % of control | T/C (endpoint: median tumor weight (est.), dose: 2.5 mg/kg/injection, schedule: Q07DX005 (ip), vehicle: saline): 36 % of control | T/C (endpoint: median tumor weight (est.), dose: 5.0 mg/kg/injection, schedule: Q07DX005 (ip), vehicle: saline): 18 % of control | T/C (endpoint: median tumor weight (est.), dose: 10.0 mg/kg/injection, schedule: Q07DX005 (ip), vehicle: saline): 6 % of control

CN1c2c(nc(N)[nH]c2=O)NCC1CCNc1ccc(C(=O)NC(CCC(=O)O)C(=O)O)cc1 (stereo unspecified)
T/C (endpoint: mean tumor weight, dose: 25.0 mg/kg/injection, schedule: Q07DX008 (ip), vehicle: sodium bicarbonate): 119 % of control | T/C (endpoint: mean tumor weight, dose: 50.0 mg/kg/injection, schedule: Q07DX008 (ip), vehicle: sodium bicarbonate): 77 % of control | T/C (endpoint: mean tumor weight, dose: 100.0 mg/kg/injection, schedule: Q07DX008 (ip), vehicle: sodium bicarbonate): 72 % of control | T/C [1]: 103 % of control | T/C [2]: 95 % of control | T/C [3]: 98 % of control

Cc1nc(N)nc(N)c1-c1ccc(Cl)c(Cl)c1
T/C (endpoint: mean tumor weight (est.), dose: 10.0 mg/kg/injection, schedule: Q07DX003 (ip), vehicle: saline with Tween-80): 120 % of control | T/C (endpoint: median tumor weight change, dose: 12.5 mg/kg/injection, schedule: Q01DX001 (ip), vehicle: saline with Tween-80): 20 % of control | T/C (endpoint: median tumor weight change, dose: 12.5 mg/kg/injection, schedule: Q01DX001 (ip), vehicle: suspension in saline): 79 % of control | T/C (endpoint: median tumor weight change, dose: 25.0 mg/kg/injection, schedule: Q01DX001 (ip), vehicle: saline with Tween-80): 50 % of control | T/C (endpoint: median tumor weight change, dose: 25.0 mg/kg/injection, schedule: Q01DX001 (ip), vehicle: suspension in saline): 38 % of control | T/C (endpoint: median tumor weight change, dose: 50.0 mg/kg/injection, schedule: Q01DX001 (ip), vehicle: saline with Tween-80): 8 % of control | T/C (endpoint: median tumor weight change, dose: 50.0 mg/kg/injection, schedule: Q01DX001 (ip), vehicle: suspension in saline): 12 % of control

O=c1[nH]c(=O)c2nc(-c3cccnc3)cnc2[nH]1
T/C [1]: 122 % of control | T/C [2]: 93 % of control | T/C [4]: 58 % of control | T/C [5]: 93 % of control | T/C [6]: 90 % of control | T/C [7]: 62 % of control

Nc1nc(N)c2c(Cl)c(CNc3ccc(Cl)c(Cl)c3)ccc2n1
T/C (endpoint: median tumor weight (est.), dose: 6.25 mg/kg/injection, schedule: Q07DX005 (ip), vehicle: saline with Tween-80): 55 % of control | T/C (endpoint: median tumor weight (est.), dose: 12.5 mg/kg/injection, schedule: Q07DX005 (ip), vehicle: saline with Tween-80): 78 % of control | T/C [8]: 82 % of control | T/C [9]: 8 % of control | T/C [10]: 27 % of control

ClCC[N+]12CC[N+](CCCl)(CC1)C2 (tested in a mixture with another compound)
T/C [2]: 75 % of control | T/C [4]: 67 % of control | T/C [5]: 93 % of control | T/C [6]: 43 % of control | T/C [7]: 43 % of control | T/C (endpoint: median tumor weight (est.), dose: 600.0 mg/kg/injection, schedule: Q07DX005 (ip), vehicle: saline): 12 % of control

C[C@H](N)C(=O)N[C@@H]1[C@H]2C(=C(O)C[C@@H](O)[C@@H]2O)C(=O)O[C@]1(C)C(Cl)Cl
T/C (endpoint: median tumor weight change, dose: 1.87 mg/kg/injection, schedule: Q01DX001 (ip), vehicle: Klucel (hydroxypropylcellulose) (HPC)): 101 % of control | T/C (endpoint: median tumor weight change, dose: 3.75 mg/kg/injection, schedule: Q01DX001 (ip), vehicle: Klucel (hydroxypropylcellulose) (HPC)): 101 % of control

COc1ccc2cc1Oc1ccc(cc1)C[C@H]1c3cc(c(OC)cc3CCN1C)Oc1c(OC)c(OC)cc3c1[C@H](C2)N(C)CC3
T/C [8]: 115 % of control | T/C [9]: 102 % of control | T/C [10]: 117 % of control | T/C (endpoint: median tumor weight (est.), dose: 200.0 mg/kg/injection, schedule: Q07DX005 (ip), vehicle: saline with Tween-80): 64 % of control | T/C (endpoint: median tumor weight (est.), dose: 400.0 mg/kg/injection, schedule: Q07DX005 (ip), vehicle: saline with Tween-80): 37 % of control

CCCCOCN(COCCCC)C(C)Cc1ccccc1 (stereo unspecified)
T/C (endpoint: median tumor weight change, dose: 62.5 mg/kg/injection, schedule: Q01DX001 (ip), vehicle: saline with Tween-80): 100 % of control | T/C (endpoint: median tumor weight change, dose: 125.0 mg/kg/injection, schedule: Q01DX001 (ip), vehicle: saline with Tween-80): 85 % of control | T/C (endpoint: median tumor weight change, dose: 250.0 mg/kg/injection, schedule: Q01DX001 (ip), vehicle: saline with Tween-80): 110 % of control | T/C (endpoint: median tumor weight change, dose: 1000.0 mg/kg/injection, schedule: Q01DX001 (ip), vehicle: saline with Tween-80): 80 % of control

NC(=O)NO
T/C [2]: 67 % of control | T/C [5]: 116 % of control | T/C [6]: 56 % of control | T/C [7]: 48 % of control | T/C [3]: 59 % of control

CC[C@](C)(O)C(=O)O[C@H]1C(=O)O[C@@H]2C[C@H]3C(C)=CC(=O)[C@@H](O)[C@]3(C)[C@H]3[C@@]4(O)OC[C@]32[C@@H]1[C@@H](C)[C@H]4O
T/C (endpoint: median tumor weight (est.), dose: 0.06 mg/kg/injection, schedule: Q07DX005 (ip), vehicle: Klucel (hydroxypropylcellulose) (HPC)): 116 % of control | T/C (endpoint: median tumor weight (est.), dose: 0.12 mg/kg/injection, schedule: Q07DX005 (ip), vehicle: Klucel (hydroxypropylcellulose) (HPC)): 108 % of control | T/C (endpoint: median tumor weight (est.), dose: 0.5 mg/kg/injection, schedule: Q07DX005 (ip), vehicle: Klucel (hydroxypropylcellulose) (HPC)): 73 % of control | T/C (endpoint: median tumor weight change, dose: 1.0 mg/kg/injection, schedule: Q01DX001 (ip), vehicle: Klucel (hydroxypropylcellulose) (HPC)): 79 % of control

COC(=O)C12OCC34C(CC5C(C)=CC(=O)C(O)C5(C)C3C(O)C1O)OC(=O)C(OC(=O)CC(C)C)C24 (stereo unspecified)
T/C (endpoint: median tumor weight (est.), dose: 0.13 mg/kg/injection, schedule: Q07DX005 (ip), vehicle: saline + alcohol): 107 % of control | T/C (endpoint: median tumor weight (est.), dose: 0.5 mg/kg/injection, schedule: Q07DX005 (ip), vehicle: saline + alcohol): 82 % of control | T/C (endpoint: median tumor weight (est.), dose: 1.0 mg/kg/injection, schedule: Q07DX005 (ip), vehicle: saline + alcohol): 64 % of control | T/C (endpoint: median tumor weight (est.), dose: 2.0 mg/kg/injection, schedule: Q07DX005 (ip), vehicle: saline + alcohol): 47 % of control
